The text below walks through data of patent US20060154904A1, “Betulinol derivatives as anti-HIV agents” (Cornell Research Foundation, Inc., priority 2004, published 2006).

Read-outs that look alike come from different tables or passages of the source.

A short description of data set [1]: solubility in DMSO diluted with culture medium, GC against standard curve. Type of data set: physicochemical. On the procedure:
The residue was dissolved in chloroform analyzed on GC.
Ethyl ether was then evaporated.

A short description of data set [2]: tolerability of solubilized drug in mice with prostate cancer cell xenografts. Conditions: final concentration 22% ethanol and 2×10^−3 mol per liter of betulonic acid. Type of data set: in vivo.
A further data set deals with HIV-1 IIIB isolate. Kind of data set: HIV-1 inhibitory effect, p24 antigen capture ELISA in acutely infected 174XCEM cells. Type of data set: cell-based. Conditions: for anti-HIV-1 activity (p24 OD, FIG. 6) / inhibition of HIV infection (FIG. 7): 1 μg/ml; for anti-HIV-1 activity (p24 OD, FIG. 6): 4 days, compared with other betulinol derivatives; for dose-related anti-HIV effect (FIG. 8): doses of 0.5, 1 .5, and 2 μg/ml. For orientation: In an ELISA, binding on a coated surface is turned into a signal by an enzyme label.

Data set [3] deals with Human T-B hybridoma cell line 174XCEM. The data set can be described thus: cell viability by trypan blue dye exclusion. Type of data set: cell-based. As to conditions: for effect on total cell number or cell viability: trypan blue at four days and seven days; for cell toxicity: doses of 0.5, 1 .5, and 2 μg/ml. The source says: Dimethyl sulfoxide (“DMSO”) buffer was used as “no virus” control.

A further data set deals with another HIV-1 isolate. The data set can be described thus: effect on 174XCEM cells chronically infected with another HIV-1 isolate. Type of data set: cell-based. As to conditions: single dose 1 μg/ml. The method, then: Agents were also evaluated for an effect on 174XCEM cells chronically infected with another HIV-1 isolate.
For a further data set, the system named is HIV. Conditions: Sun et al., J. Med. Chem. 41:4648-4657 (1998); cited from earlier work.
For the next data set, the system named is AZT-resistant HIV strain. Kind of data set: anti-HIV activity against AZT-resistant patient isolates in MT-2 cells. Type of data set: cell-based. The source says: These isolates were used to infect MT-2 cells in vitro.
Another data set relates to cells. As to conditions: cited from earlier work.
Data set [4] in a line: solubilization in PBS containing human γ-globulin, human albumin and ethanol. As to conditions: 1 × 10^−3 mol/L. Type of data set: physicochemical.
Data set [5] is described as follows: solubility in human serum. Type of data set: physicochemical. As to conditions: 1.34 mg in 31 μL ethanol and 700 μL human serum.
Where [6] appears, read: culture medium containing 20% DMSO, calculated from amount and volume.

Regarding `C=C(C)C1CCC2(C(=O)NCCCCC(NC(=O)OC(C)(C)C)C(=O)O)CC[C@]3(C)[C@H](CC[C@@H]4[C@@]5(C)CCC(=O)C(C)(C)[C@@H]5CC[C@]43C)C12` (stereo partly drawn) [Boc-Monomer], in data set [1], the “Concentration of drug (mg/mL)” value was 0.7 mg/mL. Moreover, the tolerability entry in [2] was “well tolerated”.
`C=C(C)[C@@H]1CC[C@]2(COC(C)=O)CC[C@]3(C)[C@H](CC[C@@H]4[C@@]5(C)CC[C@H](O)C(C)(C)[C@@H]5CC[C@]43C)[C@@H]12` [28-acetoxy betulin]: the “anti-HIV-1 activity (p24 OD, FIG. 6)” value in the data set on HIV-1 IIIB isolate is given as “superior”. Further, the “dose-related anti-HIV-1 activity (FIG. 10)” value with HIV-1 IIIB isolate (doses 0.5, 1, 1.5, and 2 μg/ml) was “comparable anti-HIV-1 activity”. The “effect on total cell number or cell viability” value in data set [3] is reported as “no effect”.
As for `C=C(C)C1CCC2(COC)CCC3(C)C(CCC4C5(C)CCC(OC)C(C)(C)C5CCC43C)C12` (stereo not drawn) [betulin dimethyl ether], the “anti-HIV-1 activity (p24 OD, FIG. 6)” value in the data set on HIV-1 IIIB isolate is given as “superior”. Also, the “effect on total cell number or cell viability” value in data set [3] was “no effect”.
Consider `C=C(C)C1CCC2(CO)CC[C@]3(C)[C@H](CC[C@@H]4[C@@]5(C)CCC(O)C(C)(C)[C@@H]5CC[C@]43C)C12` (stereo partly drawn) [betulinol, lup-20(29)-ene-3β, 28-diol], for which the “inhibition of HIV infection (FIG. 7)” value with HIV-1 IIIB isolate was “no effect”. Also, the “dose-related anti-HIV effect (FIG. 9)” value in the data set on HIV-1 IIIB isolate (doses 1.3, 1.6, and 2 μg/ml) was “increasing anti-HIV effect”. The “inhibition in chronically infected cells” value with another HIV-1 isolate was “minimal effect”.
For `C=C(C)[C@@H]1CC[C@]2(COC(C)=O)CC[C@]3(C)[C@H](CC[C@@H]4[C@@]5(C)CC[C@H](OC(C)=O)C(C)(C)[C@@H]5CC[C@]43C)[C@@H]12` [betulin diacetate], in the data set on HIV-1 IIIB isolate, the “inhibition of HIV infection (FIG. 7)” value was determined as 57% and the “dose-related anti-HIV effect (FIG. 8)” value is listed as “Progressive increases in anti-HIV effect”. For the same compound, in [3], the cell toxicity entry is on record as “without cell toxicity”. In the data set with HIV, the therapeutic index result is “low therapeutic index”. In addition, the “inhibition in chronically infected cells” value in the data set with another HIV-1 isolate was determined as 20%.
`C=C(C)C1CCC2(C(=O)O)CC[C@]3(C)[C@H](CC[C@@H]4[C@@]5(C)CCC(=O)C(C)(C)[C@@H]5CC[C@]43C)C12` (stereo partly drawn) [betulonic acid]: the “inhibition in the HIV infection” value stood at 56% with AZT-resistant HIV strain (day 5) and 44% in the data set with AZT-resistant HIV strain (day 8). Moreover, the cytotoxicity result in the data set on cells was “cytotoxic”. The “amount of betulonic acid dissolved” value in [1] (out of 3 mg, 1% DMSO in culture medium containing 10% FBS, nominal 0.5 mg/mL) amounted to 0.4 mg. Besides, in data set [2], the tolerability entry is “well tolerated”. Further, the Observation entry is recorded as “Complete” in [4] (γ-globulin in PBS 0 mL, albumin in PBS 2.50 mL, ethanol 280 μL); “Clear” in data set [4] (γ-globulin in PBS 0.32 mL, albumin in PBS 2.85 mL, ethanol 352 μL); “Almost Clear” in data set [4] (γ-globulin in PBS 0.69 mL, albumin in PBS 2.07 mL, ethanol 308 μL); “Cloudy” in [4] (γ-globulin in PBS 1.48 mL, albumin in PBS 0.49 mL, ethanol 220 μL); “Little Cloudy” in data set [4] (γ-globulin in PBS 1.48 mL, albumin in PBS 1.48 mL, ethanol 330 μL); “Suspension” in [4] (γ-globulin in PBS 2.50 mL, albumin in PBS 0 mL, ethanol 280 μL). Further, the Observation result in data set [5] is reported as “Clear Solution”.
Regarding `C=C(C)C1CCC2(C(=O)NCCCCC(NC(=O)C(CCCCNC(=O)C34CCC(C(=C)C)C3[C@@H]3CC[C@H]5[C@]6(C)CCC(=O)C(C)(C)[C@H]6CC[C@]5(C)[C@@]3(C)CC4)NC(=O)OC(C)(C)C)C(=O)O)CC[C@]3(C)[C@H](CC[C@@H]4[C@@]5(C)CCC(=O)C(C)(C)[C@@H]5CC[C@]43C)C12` (stereo partly drawn) [Boc-Dimer], in data set [1] (setting [6]), the “Concentration of drug (mg/mL)” value is given as 0.6 mg/mL and the “Concentration of drug (mol/L)” value is 0.0005 mol/L.
As for `C=C(C)[C@@H]1CC[C@]2(CO)CC[C@]3(C)[C@H](CC[C@@H]4[C@@]5(C)CC[C@H](OC(C)=O)C(C)(C)[C@@H]5CC[C@]43C)[C@@H]12` [3-acetoxy betulin], the “anti-HIV-1 activity (p24 OD, FIG. 6)” value in the data set with HIV-1 IIIB isolate was “superior”. Further, the “effect on total cell number or cell viability” value in data set [3] was “no effect”.
In the case of `C=C(C)[C@@H]1CC[C@]2(C=O)CC[C@]3(C)[C@H](CC[C@@H]4[C@@]5(C)CCC(=O)C(C)(C)[C@@H]5CC[C@]43C)[C@@H]12` [betulone aldehyde], in the data set on HIV-1 IIIB isolate, the “inhibition of HIV infection (FIG. 7)” value worked out at 37% and the “dose-related anti-HIV effect (FIG. 8)” value was “Progressive increases in anti-HIV effect”. Besides, in data set [3], the cell toxicity result is on record as “without cell toxicity”. In the data set with another HIV-1 isolate, the “inhibition in chronically infected cells” value is listed as “minimal effect”.
`Cc1cn([C@H]2C[C@H](N=[N+]=[N-])[C@@H](CO)O2)c(=O)[nH]c1=O` [AZT, 3′-azido-3′-deoxythymidine, reference compound]: the “inhibition in the HIV infection” value in the data set on AZT-resistant HIV strain (day 8) is recorded as “ineffective”.
